In patent US8933105B2, “Pyrrole compounds” (Takeda Pharmaceutical Company Limited, priority 2007, dated 2015):
Where a name gives a salt, the structure may show the parent alone.

Legend:
HepG2 = test: ATP content test (intracellular ATP content, ATPLite); type: cell-based, Human; conditions: HepG2, 30 μM, culture for one day, relative value to control (without addition of drug)
Experimental: (§1) Human liver cancer-derived cell line HepG2 (ATCC No. HB-8065) was passaged using Dulbecco's Modified Eagle medium (DMEM; Invitrogen) containing 10% fetal bovine serum (FBS; TRACE SCIENTIFIC LTD.), 1 mmol/L sodium pyruvate (Invitrogen), 2 mmol/L L-glutamine (Invitrogen), 50 IU/mL penicillin (Invitrogen) and 50 μg/mL streptomycin (Invitrogen) at 5% CO2, 37° C. The test reagent was prepared with DMSO to 10 mM, and further diluted with DMEM medium containing 0.5% FBS, 1 mmol/L sodium pyruvate, 2 mmol/L L-glutamine, 50 IU/mL penicillin and 50 μg/mL streptomycin to a final concentration of DMSO of 0.1%. HepG2 (2×10^4 cells/well) was cultured on a 96 well white plate (Costar) with the test reagent at 5% CO2, 37° C. After culture for one day, the intracellular ATP content was measured using ATPLite™ (PerkinElmer Life Sciences). The results are shown in Table 26 (n≧3, average value±SD) as a relative value (%) to control (without addition of drug) at 30 μM.

[1] = molecular target: T1, proton, potassium-adenosine triphosphatase (H+,K+-ATPase) (Sus scrofa, UniProt P19156); test: Proton potassium-adenosine triphosphatase (H+,K+-ATPase) inhibitory activity test; type: biochemical; conditions: swine gastric microsomal fraction, pH 6.5, 37° C.
T1 construct: a gastric mucous membrane microsomal fraction was prepared from the stomach of swine; from tissue; host or cells: swine stomach, gastric mucous membrane microsomal fraction
T1 sequence (P19156 2-1034 limits assumed): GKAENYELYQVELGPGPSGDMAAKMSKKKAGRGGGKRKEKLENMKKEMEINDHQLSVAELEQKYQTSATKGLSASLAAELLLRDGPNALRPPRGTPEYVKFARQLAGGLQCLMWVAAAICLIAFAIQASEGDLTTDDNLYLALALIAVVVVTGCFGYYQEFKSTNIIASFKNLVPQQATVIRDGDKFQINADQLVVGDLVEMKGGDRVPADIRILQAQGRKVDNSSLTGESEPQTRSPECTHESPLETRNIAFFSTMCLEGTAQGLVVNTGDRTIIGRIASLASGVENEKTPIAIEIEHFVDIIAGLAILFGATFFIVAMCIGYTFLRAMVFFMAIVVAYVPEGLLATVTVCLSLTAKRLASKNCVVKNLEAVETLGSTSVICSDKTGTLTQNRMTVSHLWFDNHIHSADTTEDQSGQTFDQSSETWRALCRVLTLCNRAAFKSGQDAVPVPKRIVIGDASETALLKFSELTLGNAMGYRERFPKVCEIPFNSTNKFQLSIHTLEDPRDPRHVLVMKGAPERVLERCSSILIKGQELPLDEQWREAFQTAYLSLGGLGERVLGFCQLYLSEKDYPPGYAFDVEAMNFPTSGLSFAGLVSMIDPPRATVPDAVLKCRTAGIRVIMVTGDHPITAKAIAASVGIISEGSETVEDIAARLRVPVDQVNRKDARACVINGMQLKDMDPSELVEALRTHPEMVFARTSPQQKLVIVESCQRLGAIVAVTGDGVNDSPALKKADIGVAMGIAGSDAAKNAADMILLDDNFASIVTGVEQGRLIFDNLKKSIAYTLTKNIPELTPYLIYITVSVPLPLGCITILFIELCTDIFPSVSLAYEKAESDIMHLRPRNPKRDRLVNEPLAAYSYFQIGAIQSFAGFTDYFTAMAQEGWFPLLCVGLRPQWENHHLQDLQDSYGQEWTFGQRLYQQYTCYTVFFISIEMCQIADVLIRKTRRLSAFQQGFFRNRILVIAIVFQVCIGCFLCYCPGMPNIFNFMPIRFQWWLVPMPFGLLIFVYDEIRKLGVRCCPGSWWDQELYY
T1 sequence (P18434 whole entry partner): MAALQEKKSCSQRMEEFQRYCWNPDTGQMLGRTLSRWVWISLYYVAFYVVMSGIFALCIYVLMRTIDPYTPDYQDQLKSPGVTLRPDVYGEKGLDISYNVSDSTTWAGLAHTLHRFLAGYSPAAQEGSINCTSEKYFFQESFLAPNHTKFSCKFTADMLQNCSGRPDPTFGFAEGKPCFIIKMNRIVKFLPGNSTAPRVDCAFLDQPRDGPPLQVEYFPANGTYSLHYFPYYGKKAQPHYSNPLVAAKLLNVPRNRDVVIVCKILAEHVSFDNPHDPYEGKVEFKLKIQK
Experimental: Proton Potassium-Adenosine Triphosphatase (H^+,K^+-ATPase) Inhibitory Activity Test
According to the method [Biochim. Biophys. Acta, 728, 31 (1983)] of Wallmark et al., a gastric mucous membrane microsomal fraction was prepared from the stomach of swine. First, the stomach was removed, washed with tap water, immersed in 3 mol/L brine, and the surface of the mucous membrane was wiped with a paper towel. The gastric mucous membrane was detached, chopped, and homogenized in a 0.25 mol/L saccharose solution (pH 6.8) containing 1 mmol/L EDTA and 10 mmol/L tris-hydrochloric acid using polytron (Kinematica). The obtained homogenate was centrifuged at 20,000×g for 30 min and the supernatant was centrifuged at 100,000×g for 90 min. The precipitate was suspended in 0.25 mol/L saccharose solution, superimposed on a 0.25 mol/L saccharose solution containing 7.5% Ficoll, and centrifuged at 100,000×g for 5 hr. The fraction containing the interface between the both layers was recovered, and centrifugally washed with 0.25 mol/L saccharose solution.
The obtained microsomal fraction was used as a proton, potassium-adenosine triphosphatase standard product.
To 40 μL of a 50 mmol/L HEPES-tris buffer (5 mmol/L magnesium chloride, 10 mmol/L potassium chloride, 10 μmol/L valinomycin, pH=6.5) containing 2.5 μg/mL (based on the protein concentration) of the enzyme standard product was added a test compound (5 μL) dissolved in a 10% aqueous dimethyl sulfoxide solution, and the mixture was incubated at 37° C. for 30 min. The enzyme reaction was started by adding 5 μL of a 2 mmol/L adenosine triphosphate tris salt solution (50 mmol/L HEPES-tris buffer (5 mmol/L magnesium chloride, pH 6.5)). The enzyme reaction was carried out at 37° C. for 20 min, and 15 μL of a malachite green solution (0.12% malachite green solution in sulfuric acid (2.5 mol/L), 7.5% ammonium molybdate and 11% Tween 20 were mixed at a ratio of 100:25:2) was added to quench the reaction. After allowing to stand at room temperature for 15 min, the resulting reaction product of inorganic phosphorus with malachite green was calorimetrically determined at a wavelength of 610 nm. In addition, the amount of the inorganic phosphoric acid in the reaction solution free of potassium chloride was measured in the same manner, which was subtracted from the inorganic phosphoric acid amount in the presence of potassium chloride to determine the proton, potassium-adenosine triphosphatase activity. The inhibitory rate (%) was determined from the activity value of the control and the activity values of various concentrations of the test compound, and the 50% inhibitory concentration (IC50) of the proton, potassium-adenosine triphosphatase was determined.

Caspase-3/7 = Caspase-3/7 activity test (Caspase-Glo 3/7 Assay); type: cell-based, Human; conditions: HepG2, 30 μM, culture for one day, relative to maximum with Staurosporine (100%) and no test reagent (0%)
Experimental: as §1
Caspase-3/7 Activity Test
The Caspase-3/7 activity in the cells cultured for one day by a method similar to that in Experimental Example 2 was measured using Caspase-Glo 3/7 Assay (Promega). The results are shown in Table 26 (n≧3, average value±SD) as relative activity (%) of each reagent based on the maximum value of Caspase-3/7 activity when exposed to Staurosporine (100%), and the activity without addition of a test reagent (0%).

ATP content (%, 30 μM) (HepG2) [%]	IC50 [1] [nM]	Caspase-3/7 activity (%, 30 μM) (Caspase-3/7) [%]	SMILES
83.4	170	3.6	CNCc1cn(S(=O)(=O)c2ccc(C#N)o2)c(-c2cccnc2F)c1F.O=C(O)/C=C/C(=O)O [Example 68, 5-({3-fluoro-2-(2-fluoropyridin-3-yl)-4-[(methylamino)methyl]-1H-pyrrol-1-yl}sulfonyl)-2-furonitrile fumarate]
101.7	300	−0.2	CNCc1cn(S(=O)(=O)c2cnn(C(F)F)c2)c(-c2cccnc2F)c1F.Cl [Example 81, 1-[1-{[1-(difluoromethyl)-1H-pyrazol-4-yl]sulfonyl}-4-fluoro-5-(2-fluoropyridin-3-yl)-1H-pyrrol-3-yl]-N-methylmethanamine hydrochloride]
98.0	300	−1.9	CNCc1cn(S(=O)(=O)c2cnn(C)c2)c(-c2cccnc2F)c1Cl.O=C(O)/C=C/C(=O)O [Example 58, 1-{4-chloro-5-(2-fluoropyridin-3-yl)-1-[(1-methyl-1H-pyrazol-4-yl)sulfonyl]-1H-pyrrol-3-yl}-N-methylmethanamine fumarate]
102.2	190	−0.1	CNCc1cn(S(=O)(=O)c2ccc(CO)o2)c(-c2cccnc2F)c1F [Example 64, [5-({3-fluoro-2-(2-fluoropyridin-3-yl)-4-[(methylamino)methyl]-1H-pyrrol-1-yl}sulfonyl)-2-furyl]methanol 0.5 fumarate]
